Experimental data as given in paper PMC8752738, “A propolis-derived small molecule ameliorates metabolic syndrome in obese mice by targeting the CREB/CRTC2 transcriptional complex” (Nature Communications, 2022).
Where “and” joins values, the source holds several entries; their conditions need not be identical. Identical values can stand only once.

Molecular target: T1, GST-CREB / FLAG-CRTC2 interaction (Homo sapiens, UniProt P16220)
T1 construct: made in house; host or cells: GST-CREB beads (pGEX5X-1); FLAG-CRTC2 expressed in HEK293T cells
T1 sequence (P16220 whole entry): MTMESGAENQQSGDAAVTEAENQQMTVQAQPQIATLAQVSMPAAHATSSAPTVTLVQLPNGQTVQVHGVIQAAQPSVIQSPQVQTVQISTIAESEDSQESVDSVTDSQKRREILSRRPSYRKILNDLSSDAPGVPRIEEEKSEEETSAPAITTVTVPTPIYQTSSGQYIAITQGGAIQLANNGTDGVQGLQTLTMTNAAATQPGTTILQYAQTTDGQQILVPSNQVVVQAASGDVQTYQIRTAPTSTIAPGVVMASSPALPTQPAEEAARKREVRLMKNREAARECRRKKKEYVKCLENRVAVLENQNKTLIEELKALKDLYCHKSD
Assay: GST-pull-down of FLAG-CRTC2 from HEK293T lysates by GST-CREB beads
Type: biochemical
Text: To further confirm whether APC disrupts the protein association between CREB and CRTC2, we performed GST-pull-down assays in which GST-CREB beads were used to immunoprecipitated FLAG-tagged CRTC2 proteins that were expressed in HEK293T cells. As expected, APC attenuated the amounts of FLAG-CRTC2 proteins recovered by GST-CREB beads from HEK293T cell lysates (Fig. 2a). […] In contrast, APC had little effect on the association of GST-CREB with HA-P300 (Supplementary Fig. 2a), as well as the interaction between endogenous CRTC2 and CBP proteins (Fig. 2c). […]
Fig. 2 APC blocks interaction between CREB and CRTC2. a Analysis of GST-CREB immunoprecipitated with overexpressed FLAG-CRTC2 from the lysates of HEK293T cells. […] Data are represented as mean ± SEM); P values were determined by one-way ANOVA followed Dunnett’s multiple comparisons test. b Analysis of HA-CRTC2 immunoprecipitated with endogenous CREB from primary hepatocyte lysates. […] Data are represented as mean ± SEM; P values were determined by one-way ANOVA followed Dunnett’s multiple comparisons test. c Immunoblotting analysis of endogenous CREB, CRTC2, and CBP interaction by an anti-CRTC2 antibody from the lysate of primary hepatocytes. […] Data are represented as mean ± SEM; P values were determined by one-way ANOVA followed Dunnett’s multiple comparisons test (compared with APC = 0). […]

`CC(C)=CCc1cc(C=CC(=O)O)cc(CC=C(C)C)c1O` [APC, 3,5-diprenyl-4-hydroxycinnamic acid] was tested, and the “Pull down FLAG/GST band dentsity (FLAG in IP fraction)” value (Fig 2a source data, replicates, GST-CREB beads +, FLAG-CRTC2 +, APC + (10 μM)) was 1.359 FOLDS and 1.3596 FOLDS and 1.382 FOLDS and the “FLAG-CRTC2 recovered by GST-CREB beads” value (HEK293T lysates, APC 10 μM) was “attenuated”.
